Paper PMC11311998, “AR71, Histamine H3 Receptor Ligand—In Vitro and In Vivo Evaluation (Anti-Inflammatory Activity, Metabolic Stability, Toxicity, and Analgesic Action)” (International Journal of Molecular Sciences, 2024)
Where “and” joins values, the source holds several entries; their conditions need not be identical. Equal entries are not always repeated. Where two headings read alike, the source gives them in different places.

How the values were obtained:
[1] = biological target: hH4R; set-up: method as in PMID 36370200; settings: cited from earlier work
[2] = test system: CCI-exposed mice; test: von Frey test in CCI neuropathic pain model; format: in vivo, mouse
Method: The effects of a single intraperitoneal (i.p.) injection of AR71 at doses of 5, 10, and 20 mg/kg on mechanical (von Frey test) and thermal (cold plate and tail flick tests) stimulus were evaluated on day 14 following sciatic nerve injury (Figure 15). There were seven to eight animals per group. All these tests were performed in three time series after the administration of the compound. In the case of the von Frey test—after 30, 90, and 180 min; the cold plate test—after 35, 95, and 185 min; and the tail flick test—after 40, 100, and 190 min.
The mice were randomly divided into four experimental groups. One group received a vehicle treatment (10% DMSO/10%(2-Hydroxypropyl)-β-cyclodextrin/water for injection, i.p.), while the other three groups were administered with AR71 at doses of 5, 10, or 20 mg/kg of body weight (b.w.), i.p. Baseline measurements for all tests were conducted before the compounds were injected, and the results are presented as percentages of the maximal possible effect (% MPE). […] All data from behavioural tests were analysed using a one-way ANOVA with Bonferroni’s multiple comparison post hoc test.
The model of chronic constriction injury (CCI) to the sciatic nerve was established according to Bennett and Xie. The surgical method was performed under isoflurate anaesthesia (2% isoflurane in 100% oxygen with a flow of 1.5 L/min). Below the right hipbone, a small incision was performed, and three ligatures (4/0 silk) around the sciatic nerve were made (with 1 mm spacing) until a brief twitch in the respective hind limb was observed. The CCI procedure leads to hypersensitivity to mechanical and thermal stimuli. Behavioural tests were performed on day 14 after the injury. AR71 was dissolved in 10% DMSO/10% (2-Hydroxypropyl)-β-cyclodextrin/water for injection and was given i.p. at doses of 5, 10, and 20 mg/kg of body weight (injection volume 10 mL/kg of bw). The control group received the vehicle (10% DMSO/10% (2-Hydroxypropyl)-β-cyclodextrin/water for injection).
Behavioural experiments were performed between 8:00 a.m. and 2:00 p.m. […]

[3] = test system: human peripheral blood mononuclear cells (PBMCs); test: PBMC viability (resazurin reduction assay); format: cell-based; settings: for IC50: Homo sapiens, PBMC, read-out: IC50 PBM Cells
Method: PBMCs were isolated from a leucocyte-buffy coat collected from the blood of healthy non-smoking donors from the Blood Bank in Lodz, Poland. They included lymphocytes, monocytes, and other white blood cells with a round nucleus. A portion of the leucocyte-buffy coat was diluted in 1% phosphate buffer saline (PBS). Then, it was centrifuged in a density gradient of Lymphosep (Cytogen, Zgierz, Poland) at 200× g for 20 min at room temperature. Next, the cells were collected and washed thrice in 1% PBS. The supernatant was poured off, and the pellet of the cells was resuspended in RPMI 1640 medium (Lonza, Basel, Switzerland). The study protocol was approved by the Committee for Research on Human Subjects of the University of Lodz, Poland (17/KBBN-UŁ/III/2019).
The resazurin reduction assay was performed similarly to that previously described by O’Brien et al.. Resazurin salt powder was dissolved in sterile PBS. The cells were seeded on 96-well plates in 5 × 10^4 for PBMCs per well. AR71 was added to the wells to achieve final concentrations of 0.78, 1.56, 3.125, 6.25, 12.5, 25, 50, and 100 µM. In the next step, the plates were incubated at 37 °C in 5% CO2 for 2 h, 24 h, 48 h, and 72 h. Then, 10 µL of resazurin salt was added to each well, and the plates were incubated again at 37 °C in 5% CO2 for 2 h. Next, fluorescence was measured with microplate reader BioTek Synergy HT (Agilent Technologies, Inc., Santa Clara, CA, USA) using an excitation wavelength of 530/25 nm and an emission wavelength of 590/35 nm.
The viability of PBMCs was estimated after 2, 24, 48, and 72 h of incubation with AR71. The viability of individual samples was calculated relative to the negative control (NC, untreated cells), which was taken as 100%. The positive control was PBMCs incubated with 0.1% DMSO (vehicle, Veh). The results represented the means with SEMs of six independent experiments and were expressed as a percentage of untreated control cells. The values were plotted against all used concentrations of AR71 to calculate the viability inhibition concentration at 50% (IC50) using GraphPad Prism 6.07 (GraphPad Software, Inc., San Diego, CA, USA).

For `COc1cc(/C=C/C(=O)c2ccc(OCCCN3CCCCC3)cc2)cc(OC)c1OC` [AR71, (E)-3-(3,4,5-trimethoxyphenyl)-1-(4-(3-(piperidin-1-yl)propoxy)phenyl)prop-2-en-1-one], the Ki [1] is listed as 2.81 µM and > 2.5 µM, the “effect in von Frey test vs vehicle” value ([2]; 10 mg/kg i.p., 30 min after injection, p < 0.05) is listed as “significant pain-relieving effects” and the “effect in von Frey test vs vehicle” value ([2]; 20 mg/kg i.p., 90 and 180 min after injection (p < 0.001 and p < 0.01), lower doses not effective) is listed as “increased withdrawal thresholds”. The “effect in von Frey test vs vehicle” value ([2]; 20 mg/kg i.p., 30 min after injection, p < 0.001) was “significant pain-relieving effects”, the “decrease in the number of PBMCs” value ([3]; 100 µM, regardless of incubation time (2-72 h)) was 80–98% and the “cytotoxic effect on PBMCs” value ([3]; 0.78, 1.56 and 3.125 µM, 2 h) was “did not cause a cytotoxic effect”. For the same compound, the “decrease in the number of PBMCs” value ([3]; 6.25–50 µM, 2 h) was no more than 20%, the IC50 ([3]; 2 h incubation) was 71 µM and the IC50 ([3]; 24 h incubation) was 21 µM. The IC50 ([3]; 48 h incubation) was 7.48 µM and the IC50 ([3]; 72 h incubation) was 4.53 µM.
